Test results taken from patent US9309242B2, “Substituted pyrido[2,3-b]pyrazines as FGFR kinase inhibitors” (priority 2011, dated 2016).

What was measured:
[1] = test system: Ba/F3-FGFR3-transfected cells; experiment: Ba/F3-FGFR3 (plus IL3) cellular proliferation assay, counterscreen with 10 ng/ml murine IL3; assay type: cell-based; conditions: plus IL3 (10 ng/ml murine IL3, counterscreen); read-out: BAF3-FGFR3 (PLUS IL3) pIC50 (converted)
Outline: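 Ba/F3 cells transfected with FGFR3, 20000/well in phenol red-free RPMI-1640 with 10% FBS, exposed to compound for 24 h at 37 °C, 5% CO2. Alamar Blue (resazurin) added for 4 h more; fluorescence read at ex 540/em 590 nm. Counterscreen run the same way with 10 ng/ml murine IL3.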

[2] = target: Ba/F3-FGFR4-transfected cells (Homo sapiens, UniProt P22455); experiment: Ba/F3-FGFR4 cellular proliferation assay, Alamar Blue; assay type: cell-based
Ba/F3-FGFR4-transfected cells, sequence (P22455 whole entry, change not shown): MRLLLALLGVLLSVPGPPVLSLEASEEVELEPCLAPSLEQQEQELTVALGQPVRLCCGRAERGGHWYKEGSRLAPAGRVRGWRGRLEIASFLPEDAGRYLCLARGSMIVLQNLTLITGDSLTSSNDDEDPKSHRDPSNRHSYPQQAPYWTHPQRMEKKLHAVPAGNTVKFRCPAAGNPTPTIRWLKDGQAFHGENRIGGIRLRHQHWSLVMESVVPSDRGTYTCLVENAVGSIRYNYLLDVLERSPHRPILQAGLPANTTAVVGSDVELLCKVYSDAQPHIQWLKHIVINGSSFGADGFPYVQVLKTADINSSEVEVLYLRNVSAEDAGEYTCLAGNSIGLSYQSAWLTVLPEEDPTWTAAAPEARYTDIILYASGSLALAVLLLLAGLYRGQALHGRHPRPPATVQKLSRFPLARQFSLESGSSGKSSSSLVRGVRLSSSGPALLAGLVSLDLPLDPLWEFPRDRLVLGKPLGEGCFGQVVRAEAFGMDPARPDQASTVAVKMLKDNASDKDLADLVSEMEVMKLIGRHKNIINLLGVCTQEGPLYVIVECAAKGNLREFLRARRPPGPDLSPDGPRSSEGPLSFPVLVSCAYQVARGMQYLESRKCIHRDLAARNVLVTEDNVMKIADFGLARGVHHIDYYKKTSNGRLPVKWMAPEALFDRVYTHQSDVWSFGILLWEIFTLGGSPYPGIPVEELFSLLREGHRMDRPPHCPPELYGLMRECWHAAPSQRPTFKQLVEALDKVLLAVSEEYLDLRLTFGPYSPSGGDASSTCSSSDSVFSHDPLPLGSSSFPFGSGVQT
Outline: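 Proliferation of Ba/F3-FGFR4-transfected cells is gauged by Alamar Blue (resazurin) fluorescence after 24 hours of compound treatment in phenol red free RPMI-1640 with 10% FBS.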

KDR (h) = KDR (h) (Homo sapiens, UniProt P35968); experiment: KDR (VEGFR2) (enzymatic assay), TR-FRET; assay type: biochemical; conditions: read-out: VEGFR 2 (KDR) pIC50 (converted)
KDR (h), sequence (P35968 20-1356): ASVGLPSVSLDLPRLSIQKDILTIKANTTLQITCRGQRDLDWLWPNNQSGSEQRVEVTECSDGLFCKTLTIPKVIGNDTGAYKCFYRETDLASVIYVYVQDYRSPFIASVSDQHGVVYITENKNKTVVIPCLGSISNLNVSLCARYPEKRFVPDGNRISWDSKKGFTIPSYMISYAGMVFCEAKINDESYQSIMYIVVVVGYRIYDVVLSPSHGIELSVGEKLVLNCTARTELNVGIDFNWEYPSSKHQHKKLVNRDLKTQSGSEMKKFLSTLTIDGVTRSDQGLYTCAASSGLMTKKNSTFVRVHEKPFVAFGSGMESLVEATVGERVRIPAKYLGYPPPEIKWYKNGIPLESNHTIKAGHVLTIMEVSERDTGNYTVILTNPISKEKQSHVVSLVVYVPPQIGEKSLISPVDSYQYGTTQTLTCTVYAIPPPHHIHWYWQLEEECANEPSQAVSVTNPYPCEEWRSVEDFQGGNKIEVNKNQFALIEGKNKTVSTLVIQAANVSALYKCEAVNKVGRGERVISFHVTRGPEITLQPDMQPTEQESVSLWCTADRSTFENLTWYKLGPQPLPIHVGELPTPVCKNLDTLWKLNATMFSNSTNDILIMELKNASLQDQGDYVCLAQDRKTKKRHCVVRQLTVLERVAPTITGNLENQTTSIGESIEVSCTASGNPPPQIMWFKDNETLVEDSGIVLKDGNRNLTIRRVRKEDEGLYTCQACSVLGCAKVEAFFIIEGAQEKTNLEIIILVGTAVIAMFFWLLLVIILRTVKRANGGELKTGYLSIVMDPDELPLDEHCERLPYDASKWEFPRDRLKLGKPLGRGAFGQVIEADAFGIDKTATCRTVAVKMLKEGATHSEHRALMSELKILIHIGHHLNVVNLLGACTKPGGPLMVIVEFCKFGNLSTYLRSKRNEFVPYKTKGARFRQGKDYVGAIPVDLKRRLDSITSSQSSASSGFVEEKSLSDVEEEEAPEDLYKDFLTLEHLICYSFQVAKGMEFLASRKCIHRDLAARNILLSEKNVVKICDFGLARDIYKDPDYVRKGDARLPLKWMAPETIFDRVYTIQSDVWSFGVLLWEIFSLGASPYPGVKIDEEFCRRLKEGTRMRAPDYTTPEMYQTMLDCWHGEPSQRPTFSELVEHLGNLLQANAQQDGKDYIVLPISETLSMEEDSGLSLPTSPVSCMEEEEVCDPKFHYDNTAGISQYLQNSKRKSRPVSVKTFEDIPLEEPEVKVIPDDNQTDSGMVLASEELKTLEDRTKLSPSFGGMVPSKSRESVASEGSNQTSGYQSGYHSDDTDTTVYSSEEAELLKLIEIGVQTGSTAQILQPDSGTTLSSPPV
Outline: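 First, kinase (150 ng/ml), Btn-Flt3 (500 nM), ATP (3 μM) and compound (1% DMSO) react 120 min at RT in pH 7.5 HEPES/6 mM MnCl2. Next, EDTA with Eu-anti-P-Tyr and SA-XL-665 stops it for 60 min. Finally, TR-FRET is read as RFU.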

[3] = target: T1, Ba/F3-KDR-transfected cells (Homo sapiens, UniProt P35968); experiment: Ba/F3-KDR (minus IL3) cellular proliferation assay, Alamar Blue; assay type: cell-based
T1 construct: BAF3-KDR (MIN IL3) pIC50; other: minus IL3
T1 sequence (P35968 whole entry, change not shown): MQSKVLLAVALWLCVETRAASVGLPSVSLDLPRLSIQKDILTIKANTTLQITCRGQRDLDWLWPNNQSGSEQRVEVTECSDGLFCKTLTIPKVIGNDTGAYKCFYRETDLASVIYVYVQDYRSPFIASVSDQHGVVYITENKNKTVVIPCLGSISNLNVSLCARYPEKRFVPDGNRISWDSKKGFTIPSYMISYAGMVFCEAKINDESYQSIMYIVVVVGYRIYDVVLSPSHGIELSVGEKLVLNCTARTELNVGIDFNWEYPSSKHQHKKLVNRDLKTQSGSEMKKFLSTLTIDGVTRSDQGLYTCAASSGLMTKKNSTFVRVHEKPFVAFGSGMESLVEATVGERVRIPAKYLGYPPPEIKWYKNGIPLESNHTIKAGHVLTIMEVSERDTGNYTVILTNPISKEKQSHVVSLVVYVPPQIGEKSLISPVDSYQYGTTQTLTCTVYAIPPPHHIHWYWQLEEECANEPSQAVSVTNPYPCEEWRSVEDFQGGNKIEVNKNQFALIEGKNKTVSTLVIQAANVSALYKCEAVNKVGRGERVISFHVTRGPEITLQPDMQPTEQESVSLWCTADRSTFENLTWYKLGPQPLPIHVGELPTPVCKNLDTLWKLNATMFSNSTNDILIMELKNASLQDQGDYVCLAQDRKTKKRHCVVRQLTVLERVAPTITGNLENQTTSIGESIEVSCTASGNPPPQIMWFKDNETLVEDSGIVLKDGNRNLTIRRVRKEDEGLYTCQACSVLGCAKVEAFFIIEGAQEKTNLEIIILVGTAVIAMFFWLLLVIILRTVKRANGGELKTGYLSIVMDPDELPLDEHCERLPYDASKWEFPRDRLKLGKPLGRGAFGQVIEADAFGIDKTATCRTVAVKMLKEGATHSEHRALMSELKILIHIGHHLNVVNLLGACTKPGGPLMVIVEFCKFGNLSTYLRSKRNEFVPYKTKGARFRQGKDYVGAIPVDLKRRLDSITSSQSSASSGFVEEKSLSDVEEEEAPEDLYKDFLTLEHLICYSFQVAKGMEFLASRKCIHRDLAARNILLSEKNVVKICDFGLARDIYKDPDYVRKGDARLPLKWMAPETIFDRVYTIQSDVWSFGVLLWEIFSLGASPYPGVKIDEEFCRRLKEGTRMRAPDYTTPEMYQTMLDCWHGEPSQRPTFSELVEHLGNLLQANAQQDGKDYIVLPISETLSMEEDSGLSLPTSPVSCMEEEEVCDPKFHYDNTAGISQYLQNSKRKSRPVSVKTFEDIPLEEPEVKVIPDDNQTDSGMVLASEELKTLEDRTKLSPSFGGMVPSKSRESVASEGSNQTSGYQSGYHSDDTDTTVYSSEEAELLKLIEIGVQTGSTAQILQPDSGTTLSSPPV
Outline: (§1)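 Proliferation is measured as Alamar Blue relative fluorescence units following 24 h compound treatment of 20000 cells per well in 10% FBS medium. The IL3-supplemented run serves as a counterscreen under the same conditions.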

FGFR2 (h) = FGFR2 (h) (Homo sapiens, UniProt P21802); experiment: FGFR2 (enzymatic assay), TR-FRET; assay type: biochemical; conditions: enzymatic assay; read-out: FGFR 2 pIC50 (converted)
FGFR2 (h), sequence (P21802 22-821): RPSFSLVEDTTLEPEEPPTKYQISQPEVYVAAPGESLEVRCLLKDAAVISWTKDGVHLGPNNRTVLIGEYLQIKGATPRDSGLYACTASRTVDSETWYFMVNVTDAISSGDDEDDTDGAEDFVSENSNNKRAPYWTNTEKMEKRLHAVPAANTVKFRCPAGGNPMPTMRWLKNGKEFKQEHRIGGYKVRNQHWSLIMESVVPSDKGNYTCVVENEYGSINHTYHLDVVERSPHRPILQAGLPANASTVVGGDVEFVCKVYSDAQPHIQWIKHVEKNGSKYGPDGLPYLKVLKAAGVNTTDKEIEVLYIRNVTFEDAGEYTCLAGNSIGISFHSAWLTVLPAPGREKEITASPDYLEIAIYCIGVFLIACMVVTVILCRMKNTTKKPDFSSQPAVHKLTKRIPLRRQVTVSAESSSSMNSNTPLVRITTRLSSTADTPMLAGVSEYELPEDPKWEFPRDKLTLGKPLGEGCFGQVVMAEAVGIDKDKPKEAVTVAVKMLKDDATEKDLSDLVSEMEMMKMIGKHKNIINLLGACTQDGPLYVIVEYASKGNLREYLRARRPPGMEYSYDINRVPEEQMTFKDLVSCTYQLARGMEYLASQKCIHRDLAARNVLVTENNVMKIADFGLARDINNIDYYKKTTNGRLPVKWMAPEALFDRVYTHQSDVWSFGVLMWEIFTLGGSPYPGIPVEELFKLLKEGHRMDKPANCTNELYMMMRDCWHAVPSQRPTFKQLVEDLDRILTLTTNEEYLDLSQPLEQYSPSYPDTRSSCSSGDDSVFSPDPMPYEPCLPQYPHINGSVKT
Outline: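 Kinase reaction in 50 mM HEPES pH 7.5 with 6 mM MnCl2, 1 mM DTT, 0.1 mM Na3VO4 and 0.01% Triton-X-100 contained FGFR2 (h) at 150 ng/ml. Biotinylated Flt3 peptide (500 nM) served as substrate with 0.4 μM ATP, compound added in 1% DMSO final.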

[4] = test system: Ba/F3-KDR-transfected cells; experiment: Ba/F3-KDR (plus IL3) cellular proliferation assay, counterscreen with 10 ng/ml murine IL3; assay type: cell-based; conditions: plus IL3 (10 ng/ml murine IL3, counterscreen); read-out: BAF3-KDR (PLUS IL3) pIC50 (converted)
Outline: as §1

[5] = target: T2, Ba/F3-FGFR1-transfected cells (Homo sapiens, UniProt P11362); experiment: Ba/F3-FGFR1 (minus IL3) cellular proliferation assay, Alamar Blue; assay type: cell-based
T2 construct: BAF3-FGFR1 (MIN IL3) pIC50; other: minus IL3
T2 sequence (P11362 whole entry, change not shown): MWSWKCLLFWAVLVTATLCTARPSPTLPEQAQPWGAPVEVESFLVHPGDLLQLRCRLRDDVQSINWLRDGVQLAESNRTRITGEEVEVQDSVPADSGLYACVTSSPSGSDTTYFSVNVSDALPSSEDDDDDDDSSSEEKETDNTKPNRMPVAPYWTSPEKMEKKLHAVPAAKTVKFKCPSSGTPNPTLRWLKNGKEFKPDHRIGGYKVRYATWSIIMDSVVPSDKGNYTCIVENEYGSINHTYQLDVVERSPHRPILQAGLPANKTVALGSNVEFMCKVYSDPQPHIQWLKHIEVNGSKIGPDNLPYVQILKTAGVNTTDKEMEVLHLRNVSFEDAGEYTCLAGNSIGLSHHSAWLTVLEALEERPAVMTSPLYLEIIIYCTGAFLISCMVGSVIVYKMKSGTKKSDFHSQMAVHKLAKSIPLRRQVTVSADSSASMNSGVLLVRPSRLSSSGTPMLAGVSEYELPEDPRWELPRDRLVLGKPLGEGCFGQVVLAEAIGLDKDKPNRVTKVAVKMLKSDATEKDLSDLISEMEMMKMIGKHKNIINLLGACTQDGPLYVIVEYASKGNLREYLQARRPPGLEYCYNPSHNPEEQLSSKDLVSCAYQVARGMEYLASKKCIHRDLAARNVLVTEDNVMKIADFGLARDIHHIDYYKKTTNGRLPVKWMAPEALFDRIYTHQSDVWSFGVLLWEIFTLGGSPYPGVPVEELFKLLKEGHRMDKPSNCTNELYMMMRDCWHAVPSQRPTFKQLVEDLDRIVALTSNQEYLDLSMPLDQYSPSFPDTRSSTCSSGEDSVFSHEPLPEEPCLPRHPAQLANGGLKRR
Outline: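 Ba/F3-FGFR1 cells (20000 per well) were exposed to compound for 24 h at 37 °C in RPMI-1640 with 10% FBS. Alamar Blue (resazurin) was then added for 4 h, and fluorescence was read at ex 540/em 590 nm.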

| SMILES | IC50 [1] [µM] | BAF3-FGFR4 pIC50 [2] | IC50 (KDR (h)) [µM] | BAF3-KDR (MIN IL3) pIC50 [3] | IC50 (FGFR2 (h)) [µM] | IC50 [4] [µM] | BAF3-FGFR1 (MIN IL3) pIC50 [5] |
| --- | --- | --- | --- | --- | --- | --- | --- |
| COc1cc(OC)c(F)c(N(CC2CCC(=O)N2)c2ccc3ncc(-c4cnn(CC(C)(C)O)c4)nc3n2)c1 (stereo not shown) [Compound 285] | > 10 | 6.12 | 0.0355 | 5.36 | 0.00407 | > 10 | 6.38 |
| COc1cc(OC)cc(N(CC2CC(O)C(=O)N2)c2ccc3ncc(-c4cnn(C)c4)nc3n2)c1 (stereo not shown) [Compound 271] | > 10 | 5.80 | 0.174 | <5 | 0.00398 | > 10 | 6.02 |
| COc1cc(OC)c(F)c(N(CC2CCC(=O)N2)c2ccc3ncc(-c4cnn(C5CNC5)c4)nc3n2)c1 (stereo not shown) [Compound 299] | > 10 | 5.32 | 0.12 | <5 | 0.00468 | > 10 | 6.05 |
| COc1cc(OC)c(F)c(N(C)c2ccc3ncc(-c4cnn(C)c4)nc3n2)c1F (single isomer, unassigned) [Compound 254] | > 10 | 7.15 | 0.0141 | 5.98 | 0.00105 | > 10 | 7.67 |
| COc1cc(OC)c(F)c(/N=c2\ccc3ncc(-c4cnn(C)c4)nc3n2C)c1F (single isomer, unassigned) [Compound 255] | > 10 | 7.34 | 0.00309 | 6.22 | 0.000776 | > 10 | 7.93 |
| COc1cc(OC)c(F)c(N(CC(=O)NC(C)C)c2ccc3ncc(-c4cnn(C)c4)nc3n2)c1 [Compound 249] | > 10 | 6.00 | 0.224 | 5.09 | 0.00479 | > 10 | 6.70 |
| COc1cc(OC)cc(N(CC(O)COC(C)C)c2ccc3ncc(-c4cnn(CC(O)COC(C)C)c4)nc3n2)c1 (stereo not shown) [Compound 250] | > 10 | 6.37 | 0.12 | 5.16 | 0.00603 | > 10 | 6.45 |
| COc1cc(OC)c(F)c(N(Cc2ncc[nH]2)c2ccc3ncc(-c4cnn(CCS(C)(=O)=O)c4)nc3n2)c1 [Compound 264] | > 10 | 7.18 | 0.00933 | 5.58 | 0.00186 | > 10 | 7.66 |
| COc1cc(OC)cc(N(Cc2ncc[nH]2)c2ccc3ncc(N4CCOCC4)nc3n2)c1 [Compound 293] | > 10 | 6.82 | 0.234 | 5.31 | 0.00182 | > 10 | 7.59 |
| COc1cc(OC)c(F)c(N(CC(O)c2cnn(C)c2)c2ccc3ncc(-c4cnn(C)c4)nc3n2)c1 (stereo not shown) [Compound 244] | > 10 | 6.11 | 0.129 | 5.03 | 0.00501 | > 10 | 6.76 |
| COc1cc(OC)cc(N(CCS(C)(=O)=O)c2ccc3ncc(-c4cnn(CCS(C)(=O)=O)c4)nc3n2)c1 [Compound 275] | > 10 | 5.13 | 0.141 | <5 | 0.00347 | > 10 | 5.64 |
| COc1cc(/N=c2\ccc3ncc(-c4cnn(C)c4)nc3n2CC2CC(O)C(=O)N2)cc(OC)c1 (stereo not shown) [Compound 272] | > 10 | 5.97 | 0.01 | 5.68 | 0.00257 | > 10 | 6.54 |
| COCC(O)Cn1/c(=N/c2cc(OC)cc(OC)c2F)ccc2ncc(-c3cnn(C)c3)nc21 (single isomer, unassigned) [Compound 60] | > 10 | 7.76 | 0.00891 | 6.58 | 0.001 | > 10 | 8.43 |
| COc1cc(OC)c(F)c(N(CC(C)(C)O)c2ccc3ncc(-c4cnn(C)c4)nc3n2)c1 [Compound 245] | > 10 | 6.34 | 0.0603 | 5.33 | 0.00447 | > 10 | 6.86 |
| COc1cc(OC)cc(N(Cc2c[nH]nn2)c2ccc3ncc(-c4cnn(C)c4)nc3n2)c1 [Compound 251] | > 10 | 6.57 | 0.0263 | 5.53 | 0.00141 | > 10 | 6.99 |
| COc1cc(/N=c2\ccc3ncc(-c4cnn(C)c4)nc3n2CC(C)(C)O)cc(OC)c1 [Compound 277] | > 10 | 6.37 | 0.0151 | 5.49 | 0.00209 | > 10 | 6.91 |
| COc1cc(/N=c2\ccc3ncc(-c4cnn(C)c4)nc3n2CC2CCC(=O)N2CCO)c(F)c(OC)c1 (stereo not shown) [Compound 247] | > 10 | 6.87 | 0.012 | 5.63 | 0.00234 | > 10 | 7.51 |
| COc1cc(OC)c(F)c(N(Cc2ncc[nH]2)c2ccc3ncc(-c4cnn(CCCN)c4)nc3n2)c1 [Compound 295] | > 10 | 7.61 | 0.00933 | 6.45 | 0.00174 | > 10 | 8.47 |
| COc1cc(OC)c(F)c(N(CC2CC2)c2ccc3ncc(-c4cnn(C)c4)nc3n2)c1F (single isomer, unassigned) [Compound 268] | > 10 | 6.90 | 0.012 | 5.55 | 0.00282 | > 10 | 7.44 |
